Experimental findings from article PMC6776382 are described below.

A short description of the data set: Two-component Cys-Cys stapling by Pd-catalysed Tsuji-Trost S-allylation with bis(allylic carbonate) Ri ((Z)-but-2-ene-1,4-diyl) or Rj (2-methylenepropane-1,3-diyl), 1.2 eq; 2.4 eq Pd(dba)2, 2.4 eq BIPHEPHOS; bis-thioether formation. The note with it: the molecule shown is the open-chain precursor, CH3CN/H2O 2:1, 1.0 mM, 40.0 °C, 3.0 h, scale: 1 = cyclic product formed with full conversion of the linear peptide.

Regarding “H-Ala-Gly-Cys-Lys-Asn-Phe-Phe-Trp-Lys-Thr-Phe-Thr-Ser-Cys-OH (Cys3/Cys14 free SH; one S carries CH2C(=CH2)CH2OCO2Me from Rj at closure; two monomer peaks plus approx. 10% 2+2 dimer)”, the ring closure, product found (41-membered ring) was 1. Under “17-membered ring”, “H-Glu-Trp-Ala-Cys-Thr-Ala-Cys-Ala-Lys-Phe-Leu-Ala-Ala-His-Ala-OH (Cys4/Cys7 free SH; one S carries CH2C(=CH2)CH2OCO2Me from Rj at closure; single product peak)” had a ring closure, product found of 1.

For the setting “21-membered ring”, “H-Glu-Trp-Ala-Cys-Thr-Ala-Ala-Cys-Lys-Phe-Leu-Ala-Ala-His-Ala-OH (Cys4/Cys8 free SH; one S carries CH2CH=CHCH2OCO2Me from Ri at closure; two product peaks, presumably E/Z)” had a ring closure, product found of 1.

Regarding “H-Glu-Trp-Ala-Cys-Thr-Ala-Cys-Ala-Lys-Phe-Leu-Ala-Ala-His-Ala-OH (Cys4/Cys7 free SH; one S carries CH2CH=CHCH2OCO2Me from Ri at closure; two product peaks, presumably E/Z)”, the ring closure, product found (18-membered ring) amounted to 1. Substance “H-Ala-Gly-Cys-Lys-Asn-Phe-Phe-Trp-Lys-Thr-Phe-Thr-Ser-Cys-OH (Cys3/Cys14 free SH; one S carries CH2CH=CHCH2OCO2Me from Ri at closure; single product peak)” registered a ring closure, product found (42-membered ring) of 1. With “H-Glu-Trp-Ala-Cys-Thr-Ala-Ala-Cys-Lys-Phe-Leu-Ala-Ala-His-Ala-OH (Cys4/Cys8 free SH; one S carries CH2C(=CH2)CH2OCO2Me from Rj at closure; single product peak)”, the ring closure, product found (20-membered ring) is 1.
